In brackets after ≈: the same amount, converted by molar mass.
Tests used:
[1] = Selectivity index, ratio of GI50 for human A549 cells to MIC90 for active stage of Mycobacterium bovis BCG ATCC 35743; assay type: toxicity, cell-based; conditions: read-out: Selectivity Index
[2] = Selectivity index, ratio of GI50 for human A549 cells to MIC90 for active stage of Mycobacterium tuberculosis H37Ra; assay type: toxicity, cell-based; conditions: read-out: Selectivity Index
[3] = (§1) Cytotoxicity against human A549 cells incubated for 1 to 11 days by MTT assay; assay type: cell-based; conditions: A549 cells
[4] = test system: Mycobacterium tuberculosis; test: Antitubercular activity against active stage of Mycobacterium tuberculosis H37Ra assessed as cell viability after 8 days by XTT reduction menadione assay; assay type: functional; conditions: 192 h
[5] = Antibacterial activity against active stage of Mycobacterium bovis BCG ATCC 35743 assessed as cell viability after 8 days by nitrate reductase assay; assay type: functional, Mycobacterium bovis BCG str. ATCC 35743; conditions: Mycobacterium tuberculosis variant bovis BCG, ATCC 35743, 192 h
[6] = Cytotoxicity against human HCT116 cells incubated for 1 to 11 days by MTT assay; assay type: cell-based, HCT-116
[7] = Selectivity index, ratio of GI50 for human HCT116 cells to MIC90 for active stage of Mycobacterium tuberculosis H37Ra; assay type: toxicity, cell-based, HCT-116; conditions: read-out: Selectivity Index
[8] = Selectivity index, ratio of GI50 for human HCT116 cells to MIC90 for active stage of Mycobacterium bovis BCG ATCC 35743; assay type: toxicity, cell-based, HCT-116; conditions: read-out: Selectivity Index
[9] = Cytotoxicity against human THP1 cells incubated for 1 to 11 days by MTT assay; assay type: cell-based, THP-1
[10] = Selectivity index, ratio of GI50 for human MCF7 cells to MIC90 for active stage of Mycobacterium tuberculosis H37Ra; assay type: toxicity, cell-based; conditions: read-out: Selectivity Index
[11] = Antibacterial activity against dormant stage of Mycobacterium bovis BCG ATCC 35743 assessed as cell viability after 12 days by nitrate reductase assay; assay type: functional, Mycobacterium bovis BCG str. ATCC 35743; conditions: Mycobacterium tuberculosis variant bovis BCG, ATCC 35743, 288 h
[12] = test system: Mycobacterium tuberculosis; test: Antitubercular activity against dormant stage of Mycobacterium tuberculosis H37Ra assessed as cell viability after 12 days by XTT reduction menadione assay; assay type: functional; conditions: 288 h
[13] = Selectivity index, ratio of GI50 for human MCF7 cells to MIC90 for active stage of Mycobacterium bovis BCG ATCC 35743; assay type: toxicity, cell-based; conditions: read-out: Selectivity Index
[14] = Cytotoxicity against human MCF7 cells incubated for 1 to 11 days by MTT assay; assay type: cell-based
[15] = Selectivity index, ratio of GI50 for human THP1 cells to MIC90 for active stage of Mycobacterium tuberculosis H37Ra; assay type: toxicity, cell-based, THP-1; conditions: read-out: Selectivity Index
[16] = Selectivity index, ratio of GI50 for human THP1 cells to MIC90 for active stage of Mycobacterium bovis BCG ATCC 35743; assay type: toxicity, cell-based, THP-1; conditions: read-out: Selectivity Index
A549 = test: as §1; assay type: cell-based; conditions: a549

SMILES	selectivity ratio [1]	selectivity ratio [2]	GI50 [3] [µg/mL]	MIC90 [4]	MIC90 [5] [µg/mL]	GI50 [6] [µg/mL]	selectivity ratio [7]	selectivity ratio [8]	GI50 [9] [µg/mL]	selectivity ratio [10]	MIC90 [11] [µg/mL]	MIC90 [12] [µg/mL]	selectivity ratio [13]	GI50 [14] [µg/mL]	selectivity ratio [15]	selectivity ratio [16]	GI90 (A549) [µg/mL]
CCCCCn1cnc2sc(CC)cc2c1=O	> 10	2	> 100	44.1 µg/mL	10.1 (≈ 40.3 µM)	> 100	2	10	> 100	2	20.8 (≈ 82.9 µM)	43.8 (≈ 175 µM)	> 10	> 100	2	10	
CCCCCCCc1cc2c(=O)n(CC3CC3)cnc2s1	> 66	2	> 100	49.3 µg/mL	1.52 (≈ 4.99 µM)	> 100	2	66	> 100	2	2.01 (≈ 6.6 µM)	49.1 (≈ 161 µM)	> 66	> 100	2	66	
CCCCCCCc1cc2c(=O)n(CCN=[N+]=[N-])cnc2s1	> 77	48	> 100	6.5 µM	1.3 (≈ 4.07 µM)	> 100	48	77	> 100	48	2.26 (≈ 7.08 µM)	8.33 (≈ 26.1 µM)	> 77	> 100	48	77	
CCCCCCCCCCc1cc2c(=O)n(CCO)cnc2s1	> 5	15	> 100	6.7 µg/mL	21.4 (≈ 63.7 µM)	> 100	15	5	> 100	15	23.4 (≈ 69.6 µM)	15 (≈ 44.6 µM)	> 5	> 100	15	5	
CCCCCCCc1cc2c(=O)n(CC#N)cnc2s1	> 53	40	> 100	8.68 µM	1.89 (≈ 6.53 µM)	> 100	40	53	> 100	40	3.02 (≈ 10.4 µM)	5.2 (≈ 18 µM)	> 53	> 100	40	53	
CCCCCCCc1cc2c(=O)n(CCCBr)cnc2s1	5	2	34.1 (≈ 92 µM)	17.5 µg/mL	6.3 (≈ 17 µM)	> 100	6	16	> 100	1	9.37 (≈ 25.2 µM)	18.5 (≈ 49.8 µM)	3	19.7 (≈ 53 µM)	6	16	
CCCCCCc1cc2c(=O)n(CCN=[N+]=[N-])cnc2s1	4	2	16.2 (≈ 52.9 µM)	8.42 µg/mL	4.08 (≈ 13.4 µM)	14.7 (≈ 48.1 µM)	2	4	> 100	12	4.51 (≈ 14.8 µM)	11.5 (≈ 37.8 µM)	> 25	> 100	12	25	74.66 (≈ 244 µM)
CCCCCc1cc2c(=O)n(CCC)cnc2s1	3	1	27.4 (≈ 103 µM)	42.9 µg/mL	8.51 (≈ 32.2 µM)	> 100	2	12	> 100	1	9.82 (≈ 37.1 µM)	36.3 (≈ 137 µM)	4	33.8 (≈ 128 µM)	2	12	
C=CCCCCCCCc1cc2c(=O)n(CCBr)cnc2s1	19	13	45.4 (≈ 119 µM)	3.5 µg/mL	2.42 (≈ 6.31 µM)	42.4 (≈ 111 µM)	12	18	> 100	7	1.4 (≈ 3.65 µM)	6.31 (≈ 16.5 µM)	11	26.1 (≈ 68.1 µM)	29	41	
CCCCCc1cc2c(=O)n(CC3CC3)cnc2s1	> 20	3	> 100	38.3 µg/mL	4.95 (≈ 17.9 µM)	> 100	3	20	> 100	3	8.07 (≈ 29.2 µM)	> 50	> 20	> 100	3	20	
CCCCCCCCCCc1cc2c(=O)n(CCBr)cnc2s1	15	1	35.1 (≈ 87.8 µM)	24.6 µg/mL	2.29 (≈ 5.73 µM)	> 100	4	44	> 100	1	3.35 (≈ 8.39 µM)	35.2 (≈ 88.2 µM)	9	20.5 (≈ 51.4 µM)	4	44	
CCCCCCc1cc2c(=O)n(CC3CC3)cnc2s1	> 73	2	> 100	45.9 µg/mL	1.37 (≈ 4.72 µM)	17.6 (≈ 60.7 µM)		13	> 100	1	2.34 (≈ 8.06 µM)	42.7 (≈ 147 µM)	18	24.8 (≈ 85.5 µM)	2	73	
CC(=O)O[C@H]1C(=O)[C@@]2(C)[C@H]([C@H](OC(=O)c3ccccc3)[C@]3(O)C[C@H](OC(=O)[C@H](O)[C@@H](NC(=O)c4ccccc4)c4ccccc4)C(C)=C1C3(C)C)[C@]1(OC(C)=O)CO[C@@H]1C[C@@H]2O [PACLITAXEL]						0.026 (≈ 0.0304 µM)			0.137 (≈ 0.161 µM)					0.0048 (≈ 0.00562 µM)			
CO[C@H]1/C=C/O[C@@]2(C)Oc3c(C)c(O)c4c(O)c(c(/C=N/N5CCN(C)CC5)c(O)c4c3C2=O)NC(=O)/C(C)=C\C=C\[C@H](C)[C@H](O)[C@@H](C)[C@@H](O)[C@@H](C)[C@H](OC(C)=O)[C@@H]1C [RIFAMPIN]		196	> 100	0.51 µg/mL	0.45 (≈ 0.547 µM)	> 100	196	222	> 100	196	0.81 (≈ 0.984 µM)	0.75 (≈ 0.911 µM)		> 100	196	222	

Source: ChEMBL document CHEMBL3774361, “Synthesis and evaluation of thieno[2,3-d]pyrimidin-4(3H)-ones as potential antitubercular agents” (Medchemcomm, 2015)
